Laboratory results from ChEMBL document CHEMBL5385848, “Discovery of novel hydroxyamidine based indoleamine 2,3-dioxygenase 1 (IDO1) and thioredoxin reductase 1 (TrxR1) dual inhibitors” (Eur J Med Chem, 2023).
pIC50: −log10 of the molar value. Active and inactive are the calls of the source. No cut-off for these calls is given here.

What was measured:
[1] = Toxicity in athymic BALB/c mouse xenografted with human HCT-116 cells assessed as change in lung morphology at 15 to 60 mg/kg, ig administered daily for 28 days and measured every 4 days; assay type: organism-based; conditions: in vivo, po, 672 h, dose 15-60 mg/kg, time 28 day
[2] = target: Indoleamine 2,3-dioxygenase 1 (Mus musculus) (UniProt P28776); experiment: In vivo inhibition of IDO1 in BALB/c mouse implanted with mouse CT-26 cells assessed as reduction in tumor Kyn/Trp ratio at 60 mg/kg, po administered once daily by LC-MS/MS analysis; assay type: functional, organism-based
Indoleamine 2,3-dioxygenase 1 (Mus musculus), sequence (P28776 whole entry, looked up): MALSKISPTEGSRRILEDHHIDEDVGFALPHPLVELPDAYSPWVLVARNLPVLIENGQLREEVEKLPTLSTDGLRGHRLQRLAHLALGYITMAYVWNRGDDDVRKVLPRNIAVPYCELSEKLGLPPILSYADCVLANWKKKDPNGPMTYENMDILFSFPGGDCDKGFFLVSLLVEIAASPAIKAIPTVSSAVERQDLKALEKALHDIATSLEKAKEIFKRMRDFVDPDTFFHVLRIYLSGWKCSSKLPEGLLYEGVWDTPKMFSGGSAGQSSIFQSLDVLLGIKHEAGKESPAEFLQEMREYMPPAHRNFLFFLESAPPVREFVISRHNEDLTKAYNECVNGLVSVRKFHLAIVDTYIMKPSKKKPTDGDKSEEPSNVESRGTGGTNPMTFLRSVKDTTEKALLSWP

Thioredoxin reductase 3 = target: T1, Thioredoxin reductase 3 (Homo sapiens, UniProt Q86VQ6); experiment: Inhibition of TrxR3 (unknown origin) incubated for 1 hr in presence of NADPH by microplate reader analysis
T1 sequence (Q86VQ6 whole entry): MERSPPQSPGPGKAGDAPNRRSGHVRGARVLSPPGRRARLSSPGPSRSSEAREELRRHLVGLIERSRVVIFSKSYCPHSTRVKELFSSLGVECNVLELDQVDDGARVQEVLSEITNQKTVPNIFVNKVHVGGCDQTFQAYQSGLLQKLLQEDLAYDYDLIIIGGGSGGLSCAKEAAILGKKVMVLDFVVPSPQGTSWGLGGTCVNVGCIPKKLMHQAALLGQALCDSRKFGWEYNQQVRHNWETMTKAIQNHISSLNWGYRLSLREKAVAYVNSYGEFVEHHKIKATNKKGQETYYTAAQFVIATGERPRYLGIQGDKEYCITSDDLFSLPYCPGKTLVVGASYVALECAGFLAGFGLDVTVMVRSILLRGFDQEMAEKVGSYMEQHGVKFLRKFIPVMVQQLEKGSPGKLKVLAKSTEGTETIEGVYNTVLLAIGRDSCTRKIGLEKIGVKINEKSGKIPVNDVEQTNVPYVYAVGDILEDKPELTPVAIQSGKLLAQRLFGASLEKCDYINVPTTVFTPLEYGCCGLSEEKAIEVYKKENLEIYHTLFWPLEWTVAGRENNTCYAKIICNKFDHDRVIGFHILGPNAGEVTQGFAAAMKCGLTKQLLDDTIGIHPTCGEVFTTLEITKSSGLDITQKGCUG

CT26 [3] = experiment: Antitumor activity against mouse CT26 cells implanted in athymic nude BALB/c mouse assessed as increase in CTL proliferation by measuring Ki67 expression at 60 mg/kg, ig administered daily for 28 days and measured every 4 days by immunofluorescence analysis; assay type: functional, organism-based; conditions: time 28.0 day
HCT-116 [4] = experiment: Cytotoxicity against human HCT-116 cells transfected with IDO1 siRNA incubated for 24 hrs by CCK-8 assay (reference value: 3.49 +/- 0.28 uM); assay type: functional, cell-based; conditions: HCT-116, 24 h
HCT-116 [5] = experiment: Induction of apoptosis in human HCT-116 cells assessed as caspase-7 activation incubated for 24 hrs; assay type: functional, cell-based; conditions: dose 2.5-10 µM
HCT-116 [6] = experiment: Induction of apoptosis in human HCT-116 cells assessed as apoptotic rate at 2.5 uM pretreated with NAC incubated for 24 hrs by Annexin-V/PI staining based flow cytometry analysis (reference value: 9.8 +/- 1.59%); assay type: functional
CT26 [7] = experiment: Antitumor activity against mouse CT26 cells implanted in athymic nude BALB/c mouse assessed as increase in CTL proliferation by measuring Ki67 expression at 15 to 60 mg/kg, ig administered daily for 28 days and measured every 4 days by flow cytometry analysis; assay type: functional, organism-based; conditions: dose 15-60 mg/kg, time 28.0 day
HCT-116 [8] = experiment: Induction of apoptosis in human HCT-116 cells assessed as apoptotic rate at 5 uM pretreated with NAC incubated for 24 hrs by Annexin-V/PI staining based flow cytometry analysis (reference value: 9.8 +/- 1.59%); assay type: functional
HeLa = experiment: Cytotoxicity against IDO1 knockdown human HeLa cells incubated for 24 hrs by CCK-8 assay (reference value: 45.93 +/- 2.23 nM); assay type: functional, cell-based
[9] = Toxicity in athymic BALB/c mouse xenografted with human HCT-116 cells assessed as change in heart morphology at 15 to 60 mg/kg, ig administered daily for 28 days and measured every 4 days; assay type: organism-based; conditions: in vivo, po, 672 h, dose 15-60 mg/kg, time 28 day
HCT-116 [10] = experiment: Induction of cell cycle arrest in human HCT-116 cells assessed as G1/S phase arrest at 2.5 to 10 uM incubated for 24 hrs by PI staining based flow cytometry analysis; assay type: functional; conditions: dose 2.5-10 µM
HCT-116 [11] = experiment: Induction of ROS generation in human HCT-116 cells at 10 uM incubated for 4 hrs by DCFH-DA staining based flow cytometry analysis; assay type: functional, cell-based
HCT-116 [12] = experiment: Antitumor activity against human HCT-116 cells xenografted in athymic nude BALB/c mouse assessed as increase in apoptotic cells at 15 to 60 mg/kg, ig administered daily for 28 days and measured every 4 days by tunel assay; assay type: functional, organism-based; conditions: dose 15-60 mg/kg, time 28.0 day
[13] = target: Tryptophan 2,3-dioxygenase (Homo sapiens, UniProt P48775); experiment: Inhibition of TDO (unknown origin) using L-Trp as substrate incubated for 75 mins
Tryptophan 2,3-dioxygenase, sequence (P48775 whole entry): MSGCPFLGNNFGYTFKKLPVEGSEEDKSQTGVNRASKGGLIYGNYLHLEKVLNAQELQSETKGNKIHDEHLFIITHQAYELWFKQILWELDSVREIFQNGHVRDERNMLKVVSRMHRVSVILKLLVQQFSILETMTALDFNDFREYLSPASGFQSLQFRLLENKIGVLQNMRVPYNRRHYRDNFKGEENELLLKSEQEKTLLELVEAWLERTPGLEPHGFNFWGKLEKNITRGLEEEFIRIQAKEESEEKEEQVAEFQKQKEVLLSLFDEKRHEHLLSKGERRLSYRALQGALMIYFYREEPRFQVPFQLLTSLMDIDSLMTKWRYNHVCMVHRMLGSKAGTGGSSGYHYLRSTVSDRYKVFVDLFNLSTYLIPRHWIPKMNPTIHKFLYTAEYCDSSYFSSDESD

HCT-116 [14] = experiment: Cytotoxicity against human HCT-116 cells transfected with TrxR1 siRNA incubated for 24 hrs by CCK-8 assay (reference value: 3.49 +/- 0.28 uM); assay type: functional, cell-based; conditions: HCT-116, 24 h
HCT-116 [15] = experiment: Antiproliferative activity against human HCT-116 cells assessed as cell growth inhibition incubated for 48 hrs by CCK-8 assay; assay type: functional, cell-based; conditions: HCT-116, 48 h
[16] = target: Indoleamine 2,3-dioxygenase 1 (Mus musculus) (UniProt P28776); experiment: In vivo inhibition of IDO1 in C57BL/6 mouse assessed as increase in plasma Trp level at 60 mg/kg, po administered once daily by LC-MS/MS analysis; assay type: functional, organism-based
IDO1 = experiment: Selectivity ratio of IC50 for cytotoxicity against mouse CT26 cells to EC50 for inhibition of IDO1 in mouse CT26 cells; assay type: cell-based; conditions: read-out: Ratio IC50/EC50
[17] = target: Indoleamine 2,3-dioxygenase 1 (Mus musculus) (UniProt P28776); experiment: In vivo inhibition of IDO1 in BALB/c mouse implanted with mouse CT-26 cells assessed as increase in plasma Trp level at 60 mg/kg, po administered once daily by LC-MS/MS analysis; assay type: functional, organism-based

Activity [2]: Active
pIC50 (Thioredoxin reductase 3): < 3.30
pIC50 [13]: 4.27
pIC50 (HCT-116 [15]): 5.46
Activity [16]: Active
Activity [17]: Active
SMILES: O=C(Cc1ccc(O)cc1)Nc1nnc(CCCNc2nonc2/C(=N\O)Nc2ccc(F)c(Br)c2)s1
Activity [1]: Non-Toxic
Activity (CT26 [3]): Active
pIC50 (HCT-116 [4]): 5.42
Activity (HCT-116 [5]): Dose-Dependent Effect
Activity (HCT-116 [6]): 10.37%
Activity (CT26 [7]): Active
Activity (HCT-116 [8]): 11.98%
pIC50 (HeLa): 4.58
Activity [9]: Non-Toxic
Activity (HCT-116 [10]): Active
Activity (HCT-116 [11]): Active
Activity (HCT-116 [12]): Active
pIC50 (HCT-116 [14]): 5.78
selectivity ratio (IDO1): 5.35
